Laboratory results reported in the supplement of paper PMC10307832.

Legend:
Assay in all cases: relative viability (nuclei count vs DMSO), 5 days (fraction); higher = more cells survive
[1] = compound: COc1cc2ncn(-c3cc(OCc4ccccc4C(F)(F)F)c(C(N)=O)s3)c2cc1OC + CCNC(=O)c1noc(-c2cc(C(C)C)c(O)cc2O)c1-c1ccc(CN2CCOCC2)cc1 [Luminespib] (partner 0.01 µM)
Procedure, shortened: (§1)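 Five library-drug doses in √10 steps were combined with a fixed anchor-drug dose, or a single drug was given alone, by pin tool to lung cancer cell lines in 1536-well plates the day after seeding. Nuclei were stained and counted after 5 days. Relative viability is the nuclei count in treated wells over that in vehicle wells, taken as the median of duplicate plates.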

[2] = compound: COc1cc2ncn(-c3cc(OCc4ccccc4C(F)(F)F)c(C(N)=O)s3)c2cc1OC + COc1cccc2cc(-c3nc([C@H]4CC[C@H](C(=O)O)CC4)n4ncnc(N)c34)[nH]c12 [OSI-027] (partner 0.5 µM)
Procedure, shortened: as §1

[3] = compound: COc1cc2ncn(-c3cc(OCc4ccccc4C(F)(F)F)c(C(N)=O)s3)c2cc1OC + CS(=O)(=O)CCNCc1ccc(-c2ccc3ncnc(Nc4ccc(OCc5cccc(F)c5)c(Cl)c4)c3c2)o1 [Lapatinib] (partner 2 µM)
Procedure, shortened: as §1

[4] = compound: COc1cc2ncn(-c3cc(OCc4ccccc4C(F)(F)F)c(C(N)=O)s3)c2cc1OC + C[C@]1(O)C[C@@H](c2nc(-c3ccc4ccc(-c5ccccc5)nc4c3)c3c(N)nccn32)C1 [Linsitinib] (partner 1 µM)
Procedure, shortened: as §1

| Cell Line | relative viability ([1]; first compound 0.05 µM) | relative viability ([1]; first compound 0.1581 µM) | relative viability ([1]; first compound 0.5 µM) | relative viability ([1]; first compound 1.581 µM) | relative viability ([1]; first compound 5 µM) | relative viability ([2]; first compound 0.05 µM) | relative viability ([2]; first compound 0.1581 µM) | relative viability ([2]; first compound 0.5 µM) | relative viability ([2]; first compound 1.581 µM) | relative viability ([2]; first compound 5 µM) | relative viability ([3]; first compound 0.05 µM) | relative viability ([3]; first compound 0.1581 µM) | relative viability ([3]; first compound 0.5 µM) | relative viability ([3]; first compound 1.581 µM) | relative viability ([3]; first compound 5 µM) | relative viability ([4]; first compound 0.05 µM) | relative viability ([4]; first compound 0.1581 µM) | relative viability ([4]; first compound 0.5 µM) | relative viability ([4]; first compound 1.581 µM) | relative viability ([4]; first compound 5 µM) |
| --- | --- | --- | --- | --- | --- | --- | --- | --- | --- | --- | --- | --- | --- | --- | --- | --- | --- | --- | --- | --- |
| NCI-H1355 | 0.635 | 0.623 | 0.424 | 0.221 | 0.163 | 0.433 | 0.367 | 0.223 | 0.177 | 0.126 | 0.966 | 0.964 | 0.771 | 0.22 | 0.152 | 0.857 | 0.863 | 0.617 | 0.203 | 0.156 |
| HCC-827 | 0.335 | 0.683 | 0.372 | 0.194 | 0.161 | 0.794 | 0.9 | 0.564 | 0.228 | 0.14 | 0.165 | 0.23 | 0.207 | 0.13 | 0.206 | 0.968 | 0.924 | 0.798 | 0.401 | 0.27 |
| HARA | 0.951 | 0.654 | 0.238 | 0.0482 | 0.0507 | 0.445 | 0.504 | 0.244 | 0.0613 | 0.0396 | 0.74 | 0.797 | 0.7 | 0.169 | 0.0753 | 0.958 | 0.842 | 0.834 | 0.208 | 0.0806 |
| NCI-H322M | 0.837 | 1.1 | 0.759 | 0.315 | 0.288 | 0.512 | 0.541 | 0.462 | 0.319 | 0.239 | 0.572 | 0.578 | 0.548 | 0.302 | 0.257 | 0.893 | 0.856 | 0.748 | 0.401 | 0.408 |
| NCI-H2347 | 0.522 | 0.303 | 0.419 | 0.346 | 0.465 | 0.488 | 0.492 | 0.326 | 0.308 | 0.375 | 0.943 | 0.788 | 0.858 | 0.507 | 0.62 | 0.99 | 0.915 | 0.84 | 0.572 | 0.759 |
| NCI-H1975 | 0.229 | 0.26 | 0.184 | 0.163 | 0.233 | 0.66 | 0.547 | 0.328 | 0.109 | 0.1 | 0.862 | 0.809 | 0.411 | 0.189 | 0.161 | 1.01 | 0.877 | 0.531 | 0.207 | 0.196 |
| NCI-H596 | 1.16 | 1.08 | 0.79 | 0.272 | 0.276 | 0.758 | 0.759 | 0.429 | 0.222 | 0.253 | 1.1 | 1.22 | 0.911 | 0.586 | 0.33 | 1.08 | 1.1 | 0.87 | 0.655 | 0.351 |
| ABC-1 | 0.709 | 0.679 | 0.255 | 0.311 | 0.263 | 0.629 | 0.437 | 0.248 | 0.207 | 0.191 | 1.18 | 0.723 | 1.11 | 1.14 | 1.2 | 0.862 | 0.874 | 0.582 | 0.302 | 0.218 |
